Key:
[1] = biological target: Platelet-derived growth factor receptor beta (Homo sapiens, UniProt P09619); assay: Inhibition of PDGFRbeta
[2] = biological target: Vascular endothelial growth factor receptor 2 (Homo sapiens, UniProt P35968); assay: Inhibition of VEGFR2
[3] = biological target: Epidermal growth factor receptor (Homo sapiens, UniProt P00533); assay: Inhibition of EGFR
[4] = biological target: Serine/threonine-protein kinase Nek2 (Homo sapiens, UniProt P51955, T175A); assay: Inhibition of human recombinant Nek2 T175A mutant by coupled pyruvate kinase/lactate dehydrogenase assay
[5] = substrate: CC[C@H](C)[C@H](NC(=O)[C@H](CO)NC(=O)[C@H](CO)NC(=O)[C@H](CCCNC(=N)N)NC(=O)[C@H](Cc1ccccc1)NC(=O)[C@@H](NC(=O)CN)[C@@H](C)O)C(=O)N[C@@H](CCCNC(=N)N)C(=O)N[C@@H](CCCNC(=N)N)C(=O)N[C@@H](CC(C)C)C(=O)N[C@@H](CO)C(=O)N[C@H](C(=O)N[C@@H](CCCNC(=N)N)C(=O)N[C@@H](CCCNC(=N)N)C(=O)N[C@@H](CCCNC(=N)N)C(=O)N[C@@H](Cc1ccc(O)cc1)C(=O)O)[C@@H](C)O; assay: Activity of human recombinant Nek2 T175A mutant assessed as substrate phosphorylation

Sequence of Epidermal growth factor receptor (P00533 whole entry): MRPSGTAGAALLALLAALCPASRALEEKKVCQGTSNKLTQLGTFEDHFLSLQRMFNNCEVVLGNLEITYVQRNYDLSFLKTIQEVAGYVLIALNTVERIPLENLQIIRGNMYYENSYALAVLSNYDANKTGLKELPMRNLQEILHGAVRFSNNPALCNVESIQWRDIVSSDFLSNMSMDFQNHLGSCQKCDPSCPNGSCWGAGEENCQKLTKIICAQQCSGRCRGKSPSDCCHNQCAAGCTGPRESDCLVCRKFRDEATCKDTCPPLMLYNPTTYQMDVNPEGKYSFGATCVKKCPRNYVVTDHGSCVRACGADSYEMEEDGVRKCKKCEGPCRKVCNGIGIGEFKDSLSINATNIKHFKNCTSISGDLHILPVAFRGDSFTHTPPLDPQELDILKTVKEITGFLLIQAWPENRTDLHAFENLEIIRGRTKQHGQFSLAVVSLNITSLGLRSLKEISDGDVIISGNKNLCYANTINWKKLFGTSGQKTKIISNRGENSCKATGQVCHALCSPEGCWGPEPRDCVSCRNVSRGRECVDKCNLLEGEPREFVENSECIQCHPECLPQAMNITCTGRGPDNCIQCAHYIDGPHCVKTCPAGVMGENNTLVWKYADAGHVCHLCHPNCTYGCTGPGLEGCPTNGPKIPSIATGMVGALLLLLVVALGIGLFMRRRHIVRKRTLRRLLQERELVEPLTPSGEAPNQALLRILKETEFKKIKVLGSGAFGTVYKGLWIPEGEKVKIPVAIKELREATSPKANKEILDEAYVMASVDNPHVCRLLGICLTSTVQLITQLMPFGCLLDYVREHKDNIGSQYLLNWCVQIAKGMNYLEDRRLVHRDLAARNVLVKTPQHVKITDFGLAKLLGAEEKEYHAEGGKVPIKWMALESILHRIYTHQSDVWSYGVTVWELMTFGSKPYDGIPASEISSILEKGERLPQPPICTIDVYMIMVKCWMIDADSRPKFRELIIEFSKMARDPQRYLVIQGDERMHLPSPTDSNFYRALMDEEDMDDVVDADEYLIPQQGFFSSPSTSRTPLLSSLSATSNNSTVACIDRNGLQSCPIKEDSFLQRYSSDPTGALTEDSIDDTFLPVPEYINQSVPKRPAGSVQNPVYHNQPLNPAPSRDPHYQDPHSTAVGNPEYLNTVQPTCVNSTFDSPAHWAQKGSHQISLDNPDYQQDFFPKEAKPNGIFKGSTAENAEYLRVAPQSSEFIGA
Sequence of Vascular endothelial growth factor receptor 2 (P35968 whole entry): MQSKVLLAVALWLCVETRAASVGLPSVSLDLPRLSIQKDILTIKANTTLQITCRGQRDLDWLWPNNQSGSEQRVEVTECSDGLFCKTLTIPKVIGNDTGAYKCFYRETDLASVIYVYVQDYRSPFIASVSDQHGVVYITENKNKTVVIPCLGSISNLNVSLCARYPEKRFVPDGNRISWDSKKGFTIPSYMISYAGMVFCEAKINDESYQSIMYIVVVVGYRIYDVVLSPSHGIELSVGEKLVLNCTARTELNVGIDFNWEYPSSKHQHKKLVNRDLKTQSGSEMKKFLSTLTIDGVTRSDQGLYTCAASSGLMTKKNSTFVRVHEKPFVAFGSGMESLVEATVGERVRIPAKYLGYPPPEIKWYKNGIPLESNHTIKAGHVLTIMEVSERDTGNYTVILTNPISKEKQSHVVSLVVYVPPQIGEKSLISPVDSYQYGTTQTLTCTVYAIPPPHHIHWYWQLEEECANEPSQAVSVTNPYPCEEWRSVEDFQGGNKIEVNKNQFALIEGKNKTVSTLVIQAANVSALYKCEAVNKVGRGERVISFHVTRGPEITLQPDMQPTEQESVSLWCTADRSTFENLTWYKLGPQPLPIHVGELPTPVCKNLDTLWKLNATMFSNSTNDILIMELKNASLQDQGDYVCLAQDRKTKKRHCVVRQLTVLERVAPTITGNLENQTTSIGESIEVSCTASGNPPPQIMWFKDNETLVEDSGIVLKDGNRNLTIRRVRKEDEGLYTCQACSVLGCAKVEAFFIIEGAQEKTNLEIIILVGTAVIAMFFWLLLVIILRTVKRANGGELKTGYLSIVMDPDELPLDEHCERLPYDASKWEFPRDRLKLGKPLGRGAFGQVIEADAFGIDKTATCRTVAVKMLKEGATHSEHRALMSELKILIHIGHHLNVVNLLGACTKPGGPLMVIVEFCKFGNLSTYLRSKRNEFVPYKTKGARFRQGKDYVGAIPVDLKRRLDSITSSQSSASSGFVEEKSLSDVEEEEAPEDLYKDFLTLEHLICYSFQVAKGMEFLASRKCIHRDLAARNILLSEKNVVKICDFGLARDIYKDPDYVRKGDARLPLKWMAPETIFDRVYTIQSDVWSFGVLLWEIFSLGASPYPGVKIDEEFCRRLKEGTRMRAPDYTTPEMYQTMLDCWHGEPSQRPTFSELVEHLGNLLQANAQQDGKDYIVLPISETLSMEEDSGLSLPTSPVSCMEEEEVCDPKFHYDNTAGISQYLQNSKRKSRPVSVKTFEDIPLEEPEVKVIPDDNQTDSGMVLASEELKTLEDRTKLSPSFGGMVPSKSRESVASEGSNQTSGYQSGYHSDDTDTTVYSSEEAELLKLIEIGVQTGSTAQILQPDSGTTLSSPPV
Sequence of Platelet-derived growth factor receptor beta (P09619 whole entry): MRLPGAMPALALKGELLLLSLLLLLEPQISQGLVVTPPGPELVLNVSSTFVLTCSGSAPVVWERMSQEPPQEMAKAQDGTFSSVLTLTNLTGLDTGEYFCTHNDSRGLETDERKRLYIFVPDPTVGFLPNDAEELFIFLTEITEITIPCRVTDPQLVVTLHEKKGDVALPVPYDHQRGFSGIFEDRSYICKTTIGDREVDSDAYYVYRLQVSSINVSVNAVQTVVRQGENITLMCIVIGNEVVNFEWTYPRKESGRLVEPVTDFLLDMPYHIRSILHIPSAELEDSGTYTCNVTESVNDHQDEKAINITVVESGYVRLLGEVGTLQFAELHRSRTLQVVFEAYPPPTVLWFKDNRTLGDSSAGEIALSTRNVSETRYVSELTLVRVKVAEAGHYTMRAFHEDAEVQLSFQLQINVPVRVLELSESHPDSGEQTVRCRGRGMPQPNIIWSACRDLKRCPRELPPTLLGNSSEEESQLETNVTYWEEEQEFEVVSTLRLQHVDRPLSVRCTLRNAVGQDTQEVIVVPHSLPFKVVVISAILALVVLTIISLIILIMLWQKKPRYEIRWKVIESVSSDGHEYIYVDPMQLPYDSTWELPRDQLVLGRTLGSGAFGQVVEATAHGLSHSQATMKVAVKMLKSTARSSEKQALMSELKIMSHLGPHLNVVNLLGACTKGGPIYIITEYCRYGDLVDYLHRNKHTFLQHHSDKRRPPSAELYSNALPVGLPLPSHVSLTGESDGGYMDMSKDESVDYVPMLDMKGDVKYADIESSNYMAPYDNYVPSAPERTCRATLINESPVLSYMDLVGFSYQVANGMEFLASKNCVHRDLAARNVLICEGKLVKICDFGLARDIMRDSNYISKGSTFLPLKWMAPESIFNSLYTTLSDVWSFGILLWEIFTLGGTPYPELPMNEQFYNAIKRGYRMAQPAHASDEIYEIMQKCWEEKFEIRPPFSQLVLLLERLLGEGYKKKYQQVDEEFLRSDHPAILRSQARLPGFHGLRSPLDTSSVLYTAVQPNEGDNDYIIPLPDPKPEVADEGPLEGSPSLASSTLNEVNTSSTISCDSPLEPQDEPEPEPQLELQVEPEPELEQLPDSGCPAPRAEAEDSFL

Row | Molecule | IC50 [1] [µM] | IC50 [2] [µM] | IC50 [3] [µM] | IC50 [4] [µM] | Km [5] [µM] | kcat [5] [s⁻¹]
1 | CCN(CC)CCNC(=O)c1c(C)[nH]c(/C=C2\C(=O)Nc3ccc(Cl)cc32)c1C [SU-11652] | 3 | 3 | 3 | 8 | – | –
2 | Serine/threonine-protein kinase Nek2 (Homo sapiens), P51955 T175A (protein) MPSRAEDYEVLYTIGTGSYGRCQKIRRKSDGKILVWKELDYGSMTEAEKQMLVSEVNLLRELKHPNIVRYYDRIIDRTNTTLYIVMEYCEGGDLASVITKGTKERQYLDEEFVLRVMTQLTLALKECHRRSDGGHTVLHRDLKPANVFLDGKQNVKLGDFGLARILNHDTSFAKAFVGTPYYMSPEQMNRMSYNEKSDIWSLGCLLYELCALMPPFTAFSQKELAGKIREGKFRRIPYRYSDELNEIITRMLNLKDYHRPSVEEILENPLIADLVADEQRRNLERRGRQLGEPEKSQDSSPVLSELKLKEIQLQERERALKAREERLEQKEQELCVRERLAEDKLARAENLLKNYSLLKERKFLSLASNPELLNLPSSVIKKKVHFSGESKENIMRSENSESQLTSKSKCKDLKKRLHAAQLRAQALSDIEKNYQLKSRQILGMR | – | – | – | – | 90 | 0.283

— ChEMBL document CHEMBL1156432, “Structure and regulation of the human Nek2 centrosomal kinase” (J Biol Chem, 2007)
